The text below walks through data of patent publication US20190070170A1, “METHOD OF S[…]-1” (Macau University of Science and Technology, priority 2017, published 2019).

Molecules are shown by their SMILES.

The subject of one assay is NO. The experiment in a line: NO production in LPS-stimulated RAW264.7 cells (Griess reagent). The format is cell-based, mouse. The conditions noted are these: pretreatment 1 h, LPS 100 ng/ml 18 h. The procedure:
(§1) RAW264.7 and A549 cell lines were obtained from American Type Culture Collection (ATCC, Manassas, Va., USA) and maintained in DMEM (RAW264.7) or 1640 (A549) medium containing 10% FBS (Gibco-BRL, Grand Island, N.Y., USA) and antibiotics at 37° C. in a humidified atmosphere containing 5% CO2. RAW264.7 cells were plated in 6-well plates at a density of 4×10^5 cells and incubated for 24 h, then the cells were pretreated with different concentrations of SIN for 1 h before stimulating with LPS (100 ng/ml). A549 cells were seeded in 6-well plates at a density of 1×10^5 cells and incubated for 24 h, followed by pretreatment with SIN. A549 cells were then stimulated by IL-1β (1 ng/ml).
(§2) RAW264.7 cells and rat peritoneal macrophages were seeded in a 96-well plate at density of 1.4×10^4 and 1.5×10^5 cells, respectively. Various concentration of SIN was added to the cells for 1 hour before LPS stimulation. After stimulation with LPS for 18 h (RAW264.7 cells) or 24 h (rat peritoneal macrophages), MTT solution was added to each well and incubated for another 4 hours. 100 μl 10% SDS-HCl solution was added to each well for overnight to dissolve the formazan dye. The optical density was measured at 570 nm against a reference wavelength of 650 nm using a microplate UV/VIS spectrophotometer (Tecan, Mannedorf, Switzerland). […]
A general note: Griess reagent forms a coloured azo dye with nitrite.

Another assay deals with cPLA2. Briefly: cPLA2 protein expression in LPS-activated rat peritoneal macrophages (western blotting). It counts as cell-based. The settings on record: SIN or DEX 1 h, LPS 24 h. The procedure:
(§3) Sprague-Dawley (SD) rats from the University of Hong Kong were housed in cages with free access to food and water. Peritoneal macrophages of SD rats were isolated as described in Liu J. et al., Pharmacological research 2016, 111:303-315. Briefly, untreated rats were sacrificed and after laparotomy, about 50 ml cold sterile Hank's balanced salt solution (HBSS) was used to lavage the peritoneal cavity at twice, and then the peritoneal lavage fluid was collected and centrifuged at 1500 rpm for 10 min. The cell pellets was suspended at a density 1.5×10^6 cells/ml in pre-hearted DMEM medium with 10% heat-inactivated FBS, penicillin G (100 units/ml), streptomycin ([…]), and L-glutamine (2 mM), followed by seeding in 6-well plates at a density of 4.5×10^6 cells and incubation for 2 h. Then the medium were discarded to remove the non-adherent cells. The adherent cells were further washed for two times with pre-heated DMEM medium to remove floating cells. Next, cells were pre-treated with various concentration of SIN for 1 h, followed by stimulation with LPS (1 μg/ml).
(§4) Whole-cell and nuclear proteins were obtained using RIPA lysis buffer (CST, Boston, Mass., USA) and Nuclear and Cytoplasmic Extraction Reagents kit from Thermo Scientific (Asheville, N.C., USA), respectively. […] The levels of protein expression were measured using Odyssey v3.0 software from Li-COR (Lincoln, Nebr., USA).
A general note: Immunoblotting shows a protein as a band on a membrane.

In a further assay the test system is COX-1. Briefly: COX-1 protein expression in LPS-activated rat peritoneal macrophages (western blotting). The format is cell-based. The settings on record: SIN or DEX 1 h, LPS 24 h. As to the method:
as §3, §4

In a further assay the test system is COX-2. The experiment in a line: COX-2 mRNA level in LPS-activated rat peritoneal macrophages (qRT-PCR). The conditions noted are these: SIN 1 h, LPS 12 h. The format is cell-based. As to the method:
Peritoneal macrophages were cultured in 6-well plates and pre-treated with the indicated concentration of SIN for 1 h, followed by LPS stimulation for another 12 h. RNA was isolated from rat peritoneal macrophages using the Nucleospin RNA kit from Macherey-Nagel (Duren, Germany) according to the manufacturer's instructions. RNA concentration derived from each sample was assessed by NanoDrop UV Spectrophotometer from Thermo Scientific (Asheville, N.C., USA). RNA (1 μg) was reverse transcripted using the transcriptor universal cDNA master reagents from Roche Applied Science (Mannheim, Germany). Gene expression quantification was performed by a high-productivity real-time quantitative PCR ViiA™ 7 machine using SYBR Green reagents from Roche Applied Science (Mannheim, Germany) according a standard protocol recommended by the manufacturer and the cycling parameters were as followed: uracil removal incubation (50° C., 2 min), polymerase activation (95° C., 10 min), 40 cycles of denaturation (95° C., 15 s) and annealing/extension (60° C., 30 s) and a melt curve stage (95° C., 15 s, 60° C., 1 min and 95° C., 15 s).
Rat primers used in the research are listed as follows:
• The levels of gene expression were quantitated using the 2(−Delta Delta C(T)) method. […]

Assay [1] relates to TNF-α. Briefly: TNF-α level in LPS-stimulated rat peritoneal macrophages (ELISA). The settings on record: pretreatment 1 h, LPS 1 μg/ml 24 h. It counts as cell-based. As to the method:
as §3
RAW264.7 cells and rat peritoneal macrophages were seeded in a 96-well plate at density of 1.4×10^4 and 1.5×10^5 cells, respectively. […] The optical density was measured at 570 nm against a reference wavelength of 650 nm using a microplate UV/VIS spectrophotometer (Tecan, Mannedorf, Switzerland). […]
(In general: An ELISA detects its analyte on a solid surface through an enzyme-linked reagent.)

The test system of assay [2] is TNF-α. Briefly: TNF-α level in LPS-stimulated RAW264.7 cells (ELISA). The format is cell-based, mouse. The conditions noted are these: pretreatment 1 h, LPS 100 ng/ml 18 h. As to the method:
as §1, §2

In the case of `COC1=C[C@@H]2[C@@H]3Cc4ccc(OC)c(O)c4[C@]2(CCN3C)CC1=O` [SIN, sinomenine], in the assay on NO, the “NO production (nitrite)” value is listed as “significantly inhibited”. In addition, the cPLA2 expression result in the assay on cPLA2 is given as “no influences”. The COX-1 protein expression entry in the assay with COX-1 is on record as “did not suppress”. Besides, the “gene level of COX-2 (mRNA)” value in the assay with COX-2 was “did not suppress”. Also, the TNF-α production result in the assay on TNF-α [1] and in the assay with TNF-α [2] was “significantly inhibited” each time.
